What follows are molecules tested on Escherichia coli strain ATCC25922 (assay: standard microdilution assay to determine minimum inhibitory concentrations (MICs)). Settings: Escherichia coli strain ATCC25922, microdilution.
Type: cell-based
Method in brief: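 Broth microdilution per CLSI (M7-A8/M100-S20), 100 μl final volume, with reference-strain quality control; MIC is the lowest inhibitory concentration. Scored "+"/"−" against a 16 micrograms/ml cutoff, "N/A" where unavailable.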

Row | SMILES | E. coli ATCC25922 MIC
1 | COCCNC[C@@H]1C[C@@H](NC(=O)Nc2nc(=O)c(-c3ccc(CNCCCNC(=N)N)cc3)c[nH]2)CN1C[C@@H](C)CN [Compound 152] | + (a “+” indicates that the compound has an MIC value of 16 micrograms/ml or less)
2 | C[C@@H](CN)CN1C[C@H](NC(=O)Nc2nc(=O)c(-c3ccc(CNCCCNC(=N)N)cc3)c[nH]2)C[C@H]1CNCCC1CC1 [Compound 153] | + (a “+” indicates that the compound has an MIC value of 16 micrograms/ml or less)
3 | N=C(N)NCCCNCc1ccc(-c2c[nH]c(NC(=O)Nc3ccc(C4CC4)cc3OCCCN)nc2=O)cc1 [Compound 184] | + (a “+” indicates that the compound has an MIC value of 16 micrograms/ml or less)
4 | COc1cccc(OCCCN)c1NC(=O)Nc1nc(=O)c(-c2ccc(CNCCCNC(=N)N)cc2)c[nH]1 [Compound 185] | − (a “−” indicates that the compound has an MIC value greater than 16 micrograms/ml)
5 | CC(C)c1cccc(OCCCN)c1NC(=O)Nc1nc(=O)c(-c2ccc(CNCCCNC(=N)N)cc2)c[nH]1 [Compound 186] | − (a “−” indicates that the compound has an MIC value greater than 16 micrograms/ml)
6 | N=C(N)NCCCNCc1ccc(-c2c[nH]c(NC(=O)Nc3c(Cl)cccc3OCCCN)nc2=O)cc1 [Compound 187] | − (a “−” indicates that the compound has an MIC value greater than 16 micrograms/ml)
7 | N=C(N)NCCCNCc1ccc(-c2c[nH]c(NC(=O)Nc3cc(C(F)F)ccc3OCCCN)nc2=O)cc1 [Compound 188] | + (a “+” indicates that the compound has an MIC value of 16 micrograms/ml or less)
8 | N=C(N)NCCCNCc1ccc(-c2c[nH]c(NC(=O)Nc3c(OCCCN)cccc3C3CC3)nc2=O)cc1 [Compound 189] | − (a “−” indicates that the compound has an MIC value greater than 16 micrograms/ml)
9 | N=C(N)NCCCNCc1ccc(-c2c[nH]c(NC(=O)Nc3c(CO)cccc3OCCCN)nc2=O)cc1 [Compound 190] | − (a “−” indicates that the compound has an MIC value greater than 16 micrograms/ml)
10 | Cc1c(-c2cc3cn(-c4ccc(CNCCCNC(=N)N)cc4)c(=O)nc3[nH]2)cc(CCCCN)cc1C(F)(F)F [Compound 212] | + (a “+” indicates that the compound has an MIC value of 16 micrograms/ml or less)
11 | N=C(N)NCCCNCc1ccc(-n2cc3cc(-c4cc(CCCCN)cc(OC(F)F)c4Cl)[nH]c3nc2=O)cc1 [Compound 214] | + (a “+” indicates that the compound has an MIC value of 16 micrograms/ml or less)
12 | COC(CCCN)c1cc(OC(F)(F)F)cc(-c2cc3cn(-c4ccc(CNCCCNC(=N)N)cc4)c(=O)nc3[nH]2)c1 (centres unmarked) [Compound 216] | + (a “+” indicates that the compound has an MIC value of 16 micrograms/ml or less)
13 | CCc1cc(CCCCN)cc(-c2cc3cn(-c4ccc(CNCCCNC(=N)N)cc4)c(=O)nc3[nH]2)c1Cl [Compound 217] | + (a “+” indicates that the compound has an MIC value of 16 micrograms/ml or less)
14 | N=C(N)NCCCNCc1ccc(-n2cc3cc(-c4cc(CCCCN)cc(F)c4C(F)(F)F)[nH]c3nc2=O)cc1 [Compound 218] | + (a “+” indicates that the compound has an MIC value of 16 micrograms/ml or less)
15 | Cc1cc(CCCC(C)N)cc(-c2cc3cn(-c4ccc(CNCCCNC(=N)N)cc4)c(=O)nc3[nH]2)c1F (centres unmarked) [Compound 219] | + (a “+” indicates that the compound has an MIC value of 16 micrograms/ml or less)
16 | N=C(N)NCCCNCc1ccc(-n2cc3cc(-c4cc(CCCCN)cc([S+]([O-])C(F)(F)F)c4Cl)[nH]c3nc2=O)cc1 (centres unmarked) [Compound 220] | + (a “+” indicates that the compound has an MIC value of 16 micrograms/ml or less)
17 | N=C(N)NCCCNCc1ccc(-n2cc3cc(-c4cc(CCCCN)cc(OC(F)(F)F)c4)[nH]c3nc2=O)cc1 [Compound 221] | + (a “+” indicates that the compound has an MIC value of 16 micrograms/ml or less)
18 | Cc1cc(CCCCN)cc(-c2cc3cn(-c4ccc(CNCCCNC(=N)N)cc4)c(=O)nc3[nH]2)c1C(F)(F)F [Compound 222] | + (a “+” indicates that the compound has an MIC value of 16 micrograms/ml or less)
19 | N=C(N)NCCCNCc1ccc(-n2cc3cc(-c4cc(CCC5(CN)CC5)cc(F)c4Cl)[nH]c3nc2=O)cc1 [Compound 223] | + (a “+” indicates that the compound has an MIC value of 16 micrograms/ml or less)
20 | N=C(N)NCCCNCc1ccc(-n2cc3cc(-c4cc(CCCN)cc(Cl)c4Cl)[nH]c3nc2=O)cc1 [Compound 224] | + (a “+” indicates that the compound has an MIC value of 16 micrograms/ml or less)

Row | SMILES | E. coli ATCC25922 MIC
21 | N=C(N)NCCCNCc1ccc(-n2cc3cc(-c4cc(CCCN)cc(OC(F)(F)F)c4Cl)[nH]c3nc2=O)cc1 [Compound 225] | + (a “+” indicates that the compound has an MIC value of 16 micrograms/ml or less)
22 | N=C(N)NCCCNCc1ccc(-n2cc3cc(-c4cc(CCCCN)cc(Cl)c4C(F)(F)F)[nH]c3nc2=O)cc1 [Compound 226] | + (a “+” indicates that the compound has an MIC value of 16 micrograms/ml or less)
23 | C[C@H](NCCCNC(=N)N)c1ccc(-n2cc3cc(-c4ccc(C(NC5CN(C(=N)N)C5)C(F)(F)F)cc4)[nH]c3nc2=O)cc1 (some centres unmarked) [Compound 227] | + (a “+” indicates that the compound has an MIC value of 16 micrograms/ml or less)
24 | N=C(N)NCCCNCc1ccc(-n2cc3cc(-c4cc(CCCN)cc(Cl)c4F)[nH]c3nc2=O)cc1 [Compound 228] | + (a “+” indicates that the compound has an MIC value of 16 micrograms/ml or less)
25 | CCOc1cc(CCCCN)cc(-c2cc3cn(-c4ccc(CNCCCNC(=N)N)cc4)c(=O)nc3[nH]2)c1C(F)(F)F [Compound 229] | + (a “+” indicates that the compound has an MIC value of 16 micrograms/ml or less)
26 | C[C@H](N)CCCc1cc(OC(F)(F)F)cc(-c2cc3cn(-c4ccc([C@H](C)NCCCNC(=N)N)cc4)c(=O)nc3[nH]2)c1 [Compound 230] | + (a “+” indicates that the compound has an MIC value of 16 micrograms/ml or less)
27 | CC(N)CCCc1cc(SC(F)(F)F)cc(-c2cc3cn(-c4ccc(C(C)NCCCNC(=N)N)cc4)c(=O)nc3[nH]2)c1 (centres unmarked) [Compound 231] | + (a “+” indicates that the compound has an MIC value of 16 micrograms/ml or less)
28 | CCc1cc(CCCCN)cc(-c2cc3cn(-c4ccc(CNCCCNC(=N)N)cc4)c(=O)nc3[nH]2)c1C(F)(F)F [Compound 233] | + (a “+” indicates that the compound has an MIC value of 16 micrograms/ml or less)
29 | C[C@H](N)CCCc1cc(SC(F)(F)F)cc(-c2cc3cn(-c4ccc(CNCCCNC(=N)N)cc4)c(=O)nc3[nH]2)c1 [Compound 235] | + (a “+” indicates that the compound has an MIC value of 16 micrograms/ml or less)
30 | C[C@H](N)CCCc1cc(-c2cc3cn(-c4ccc([C@H](C)NCCCNC(=N)N)cc4)c(=O)nc3[nH]2)cc(C(F)(F)F)c1 [Compound 236] | + (a “+” indicates that the compound has an MIC value of 16 micrograms/ml or less)
31 | Cc1c(OC(F)F)cc(CCCCN)cc1-c1cc2cn(-c3ccc(CNCCCNC(=N)N)cc3)c(=O)nc2[nH]1 [Compound 237] | + (a “+” indicates that the compound has an MIC value of 16 micrograms/ml or less)
32 | N=C(N)NCCCNCc1ccc(-n2cc3cc(-c4cc(CC[C@@H](O)CN)cc(OC(F)(F)F)c4)[nH]c3nc2=O)cc1 [Compound 238] | + (a “+” indicates that the compound has an MIC value of 16 micrograms/ml or less)
33 | N=C(N)NCCCNCc1ccc(-n2cc3cc(-c4cc(CC[C@H](O)CN)cc(OC(F)(F)F)c4)[nH]c3nc2=O)cc1 [Compound 239] | + (a “+” indicates that the compound has an MIC value of 16 micrograms/ml or less)
34 | N=C(N)NCCCNCc1ccc(-n2cc3cc(-c4cc(CCC(O)CN)cc(OC(F)(F)F)c4)[nH]c3nc2=O)cc1 (centres unmarked) [Compound 240] | + (a “+” indicates that the compound has an MIC value of 16 micrograms/ml or less)
35 | CC(CN)Cc1cc(OC(F)(F)F)cc(-c2cc3cn(-c4ccc(CNCCCNC(=N)N)cc4)c(=O)nc3[nH]2)c1 (centres unmarked) [Compound 241] | + (a “+” indicates that the compound has an MIC value of 16 micrograms/ml or less)
36 | CC(CN)Cc1cc(-c2cc3cn(-c4ccc(CNCCCNC(=N)N)cc4)c(=O)nc3[nH]2)cc(C(F)(F)F)c1 (centres unmarked) [Compound 242] | + (a “+” indicates that the compound has an MIC value of 16 micrograms/ml or less)
37 | CC(C)(CN)CCc1cc(Cl)c(F)c(-c2cc3cn(-c4ccc(CNCCCNC(=N)N)cc4)c(=O)nc3[nH]2)c1 [Compound 243] | + (a “+” indicates that the compound has an MIC value of 16 micrograms/ml or less)
38 | N=C(N)NCCCNCc1ccc(-n2cc3cc(-c4cc(CCCCN)cc(CF)c4C(F)(F)F)[nH]c3nc2=O)cc1 [Compound 244] | + (a “+” indicates that the compound has an MIC value of 16 micrograms/ml or less)
39 | CCOc1cc(CCCCN)cc(-c2cc3cn(-c4ccc(CNCCCNC(=N)N)cc4)c(=O)nc3[nH]2)c1F [Compound 245] | + (a “+” indicates that the compound has an MIC value of 16 micrograms/ml or less)
40 | N=C(N)NCCCNCc1ccc(-n2cc3cc(-c4cc(CCCCN)cc(CO)c4C(F)(F)F)[nH]c3nc2=O)cc1 [Compound 246] | + (a “+” indicates that the compound has an MIC value of 16 micrograms/ml or less)

Same assay, conditions: Escherichia coli strain ATCC25922, microdilution; read-out: E. coli ATCC25922 MIC

Row | SMILES | MIC [µg/mL]
41 | C[C@H](N)CCCc1cc(Cl)c(F)c(-c2cc3cn(-c4ccc([C@H](C)NCCCNC(=N)N)cc4)c(=O)nc3[nH]2)c1 [Compound 234] | ≤ 16

Reference: patent US9221827B2, “Antimicrobial compounds and methods of making and using the same” (Melinta Therapeutics, Inc., priority 2011, dated 2015)
